Values quoted from earlier work, collected in patent US5169665A, “Tris-hydroxymethyl alkane esters as low calorie fat mimetics” (Nabisco, Inc., priority 1990, dated 1992).

What was measured:
[1] = test system: pancreatic lipase; settings: quoted from Minich, col. 4
[2] = rats fed ad libitum, versus control animals on a normal diet

CCCCCCCC(=O)OCC(COC(=O)CCCCCCC)(COC(=O)CCCCCCC)COC(=O)CCCCCCC [pentaerythritol tetracaprylate]
hydrolysis by pancreatic lipase [1]: not attacked, hydrolyzed, by the enzyme pancreatic lipase
food consumption [2]: consumed more than control animals on a normal diet
